Measurements published in publication PMC3891837 (American journal of obstetrics and gynecology, 2013).
Like-named read-outs stand apart in the source and are kept apart here.

Legend:
[1] = set-up: species or system human
[2] = system: efflux transporters (P-gp, MRP, BCRP); format: biochemical; conditions: human, inside-out vesicles from placental brush border membranes, pH 7.4, probe [3H]-paclitaxel, 40 nM
[3] = set-up: species or system human; remark: listed apart in the source
[4] = system: efflux transporters (P-gp, MRP, BCRP); format: biochemical; conditions: human, inside-out vesicles from placental brush border membranes, pH 7.4, probe [3H]-estrone sulfate, 100 nM

SMILES	normalized transfer (Clearance index) to antipyrine ([1]; Fetal-to-Maternal direction, p < 0.01 vs Maternal to Fetal)	concentration in the maternal circuit at the end of perfusion ([1]; F→M, 4 hours of perfusion, initial donor concentration 50 ng/mL)	maternal/fetal concentration ratio ([1]; F→M, end of 4 hours of perfusion)	time to appearance in the maternal (recipient) circuit ([1]; F→M, initial donor concentration 50 ng/mL)	IC50 at 1 min [2]	normalized transfer (Clearance index) to antipyrine ([3]; Maternal-to-Fetal direction)	concentration in the fetal circuit at the end of the experimental period ([3]; M→F, 4-hour perfusion, initial donor concentration 50 ng/mL)	drug remained in the maternal circuit ([3]; M→F, end of 4-hour perfusion)	drug retained by the tissue ([3]; M→F, end of 4-hour perfusion)	drug transferred to the fetal circuit ([3]; M→F, end of 4-hour perfusion)	fetal/maternal concentration ratio ([3]; M→F, end of 4-hour perfusion)	appearance in the fetal circuit after start of perfusion ([3]; M→F, initial donor concentration 50 ng/mL)	IC50 at 3 min [4]	transplacental transfer of antipyrine ([3]; marker compound, 20 μg/mL, dual perfusion, 4 h)
CC[C@H](C)C(=O)O[C@H]1C[C@H](O)C=C2C=C[C@H](C)[C@H](CC[C@@H](O)C[C@@H](O)CC(=O)O)[C@H]21 [Pravastatin, pravastatin]	0.48 ± 0.07	6.4 ± 1.0 ng/mL	0.19 ± 0.03	less than 5 minutes	11 µM	0.36 ± 0.07	8.8 ± 1.8 ng/mL	68 ± 5%	14 ± 5%	18 ± 4%	0.26 ± 0.06	within the initial five minutes	30 µM	
Cc1cc(=O)n(-c2ccccc2)n1C [antipyrine]														approximately 50%
